# Assay results: the NIST ThermoML archive (doi:10.1021/acs.jced.6b00357)
# “And” between values parts separate entries of the source, which are not always exact repeats. Equal entries are not always repeated. Numbers after ± are expanded uncertainties.
# Settings: Liquid, Transpiration method
smiles,measurement,setting,value
O [water],vapor or sublimation pressure,293.15 K,2.319 ± 0.094 kPa and 2.32 ± 0.094 kPa and 2.315 ± 0.094 kPa
same,vapor or sublimation pressure,298.15 K,3.178 ± 0.13 kPa
